# Measurements: patent publication US20160095823A1, “METHODS OF USING PROPOFOL DERIVATIVES FOR ANALGESIA” (priority 2005, published 2016)
# “And” between values parts separate entries of the source, which are not always exact repeats. Equal entries are not always repeated.
# Columns and labels:
# [1] = system: native glycine receptors; assay: Rat in vitro spinal cord preparation (sIPSCs, tonic conductance); conditions: 100 nM-1 μM, preliminary experiments
# [2] = target: T1, recombinant glycine alpha1 receptors (Homo sapiens, UniProt P23415); assay: Glycine (EC10)-evoked current in Xenopus oocytes; format: cell-based; conditions: 100 nM, preliminary experiments
# T1 construct: expressed in transfected cells; host or cells: Xenopus oocytes
# T1 sequence (P23415 29-457): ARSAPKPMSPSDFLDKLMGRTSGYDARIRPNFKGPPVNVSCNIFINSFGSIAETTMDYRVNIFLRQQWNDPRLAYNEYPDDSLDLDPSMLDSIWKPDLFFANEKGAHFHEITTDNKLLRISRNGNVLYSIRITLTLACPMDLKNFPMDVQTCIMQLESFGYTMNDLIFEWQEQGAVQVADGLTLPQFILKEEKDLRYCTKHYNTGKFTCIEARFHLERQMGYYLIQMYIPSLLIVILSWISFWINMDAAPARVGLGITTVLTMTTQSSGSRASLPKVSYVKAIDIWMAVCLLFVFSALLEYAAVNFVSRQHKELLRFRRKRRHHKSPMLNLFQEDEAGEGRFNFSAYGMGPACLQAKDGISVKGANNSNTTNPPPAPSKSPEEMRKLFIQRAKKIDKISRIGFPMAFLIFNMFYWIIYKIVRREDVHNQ
# [3] = system: Xenopus laevis embryos; assay: Fictive swimming in immobilized stage 37/8 Xenopus embryos (ventral root recording); format: in vivo
# From the text: The rhythmic swimming behaviour of Xenopus laevis frog embryos (FIG. 22A) is recognised as a powerful model system for exploring spinal neural networks controlling locomotion. The intensity, frequency and duration of swimming episodes are regulated by two inhibitory pathways: a descending brainstem GABA pathway that turns off swimming and a spinal glycinergic pathway that controls the cycle periods attained during swimming.
# In the present study Xenopus embryos were used to test the action of 4-chloropropofol (a compound according to the first aspect of the invention) upon fictive swimming in immobilized embryos.
# Stage 37/8 embryos (FIG. 22Ai) were immobilized in α-bungarotoxin, secured on a Sylgard block mounted in a recording chamber and recirculated with frog ringer. The flank skin on the left and right sides of the trunk was removed to expose the inter-myotomal clefts wherein lie the ventral roots and then three glass suction electrodes were positioned at rostral and caudal levels on the left side and rostrally on the right side (FIG. 22Aiii) to record “fictive” swimming (FIG. 22B). Swimming activity was evoked by a brief 1 msec current pulse applied to the tail skin via a fourth glass suction electrode. Drugs were applied directly to the bath.
# [4] = target: T2, α-subunits of glycine receptors from the rat coexpressed with human β subunits (Rattus norvegicus, UniProt P07727); assay: Example 2: co-activation of the current response to 10 μM glycine, whole-cell mode, HEK293 cells; format: cell-based
# T2 construct: expressed in transfected cells; host or cells: HEK293
# Experimental: (§1) Small cells were studied in the whole-cell mode using an ultra-fast application device.
# The results presented in FIG. 10 were corroborated by repeating the tests carried out to provide the data shown in FIG. 10 to provide the data shown in FIG. 11. […] Note from FIGS. 10 and 11 that the co-activating effect is observed in the concentration range between […]. The co-activating effect is overridden by inhibitory effects at higher concentrations (≧1000 μM). […] Small cells were studied in the whole-cell mode using an ultra-fast application device.
# [5] = target: T2, α-subunits of glycine receptors from the rat coexpressed with human β subunits; assay: Example 2: direct activation in the absence of glycine, whole-cell mode, HEK293 cells; format: cell-based
# From the text: as §1
# The solid line is a Hill fit to the data with the indicated parameters. Note that the direct activating effect is observed at 1000-fold higher concentrations than the co-activating effect.
# [6] = system: Xenopus laevis embryos; conditions: cited from earlier work
# [7] = system: glycine receptors; conditions: reported; cited from earlier work
# [8] = 10 μM in the presence of 1 μM strychnine
# [9] = 10 μM in the presence of 1 μM strychnine, pooled n=3
# [10] = 10 μM in the presence of 40 μM bicuculline methiodide
# [11] = wash after 10 μM in 1 μM strychnine
# [12] = wash after 10 μM in 40 μM bicuculline methiodide
# T2 sequence (P07727 29-457): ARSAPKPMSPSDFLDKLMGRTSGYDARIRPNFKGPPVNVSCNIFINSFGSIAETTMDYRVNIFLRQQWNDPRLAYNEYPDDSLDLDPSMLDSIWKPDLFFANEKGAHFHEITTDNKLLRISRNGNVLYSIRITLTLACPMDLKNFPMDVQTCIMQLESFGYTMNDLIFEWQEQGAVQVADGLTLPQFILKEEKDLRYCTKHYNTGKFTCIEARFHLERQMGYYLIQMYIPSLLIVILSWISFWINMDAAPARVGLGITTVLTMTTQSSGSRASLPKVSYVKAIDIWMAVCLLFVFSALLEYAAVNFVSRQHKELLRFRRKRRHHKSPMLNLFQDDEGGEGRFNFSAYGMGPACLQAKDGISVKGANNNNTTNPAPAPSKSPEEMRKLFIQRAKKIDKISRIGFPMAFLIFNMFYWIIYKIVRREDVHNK
# T2 sequence (P48167 23-497 partner): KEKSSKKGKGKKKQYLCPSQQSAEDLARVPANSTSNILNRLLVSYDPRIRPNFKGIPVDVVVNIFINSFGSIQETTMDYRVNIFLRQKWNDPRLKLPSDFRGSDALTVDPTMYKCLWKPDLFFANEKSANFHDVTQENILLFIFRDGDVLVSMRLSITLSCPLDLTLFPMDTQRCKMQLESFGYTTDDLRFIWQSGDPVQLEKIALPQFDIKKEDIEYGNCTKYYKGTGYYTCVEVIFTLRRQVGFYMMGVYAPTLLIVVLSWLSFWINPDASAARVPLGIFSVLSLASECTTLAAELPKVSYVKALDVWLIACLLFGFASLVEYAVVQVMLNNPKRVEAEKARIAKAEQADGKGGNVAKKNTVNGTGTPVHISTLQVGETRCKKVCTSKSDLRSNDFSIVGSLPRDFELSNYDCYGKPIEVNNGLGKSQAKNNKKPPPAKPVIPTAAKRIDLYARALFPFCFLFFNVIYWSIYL
compound,measurement,setting,value
"CC(C)c1cc(Cl)cc(C(C)C)c1O [4-chloropropofol, 4-chloro-2,6 di-isopropylphenol]",effect on sIPSCs (mediated by synaptic glycine receptors),[1],prolongation
same,effect on tonic conductance (mediated by extrasynaptic glycine receptors),[1],increase
same,effect on glycine (EC10)-evoked current,[2],greatly enhanced
same,change in episode duration,[3]; 10 μM alone,no significant change
same,increase in left-right delay,[3]; 10 μM alone,19%
same,increase in rostro-caudal delay,[3]; 10 μM alone,8%
same,increase in cycle periods,"[3]; 10 μM alone, pooled from 5 experiments",approximately 20%
same,decrease in cycle periods at the end of the episode,[3]; [8],3.4 ms
same,decrease in episode duration,[3]; [8],17 s
same,increase in cycle periods at the start of the episode,[3]; [8],0.5 ms
same,decrease in cycle periods (not significant),[3]; [9],less than 2%
same,effect on episode duration,[3]; [9],little or no effect
same,effect on left-right delay,[3]; [9],little or no effect
same,increase in cycle periods at the end of the episode,[3]; [10],20.3 ms
same,increase in cycle periods at the start of the episode,[3]; [10],8.2 ms
same,increase in episode duration,[3]; [10],2 s
same,average cycle period,[3]; 20 minutes after addition of 10 μM 4-chloropropofol in bicuculline,61.3 ms
same,reversal of effect on cycle period by saline wash,[3]; after 10 μM alone,25-30%
same,reversal of effect on left-right delay by saline wash,[3]; after 10 μM alone,22%
same,reversal of effect on rostro-caudal delay by saline wash,[3]; after 10 μM alone,12%
same,average cycle period,[3]; after bicuculline methiodide wash,54.5 ms
same,effect at the GABAA receptor,[3]; at 1004 (so in the source),negligible effect
same,influence on glycine receptors,[3]; at the same concentration,powerful influence
same,change in rostro-caudal delay,[3]; in the presence of 1 μM strychnine,small increase
same,change in rostro-caudal delay,[3]; in the presence of 40 μM bicuculline methiodide,clear decrease
same,decrease in cycle periods at the end of the episode by strychnine wash,[3]; [11],5.4 ms
same,decrease in cycle periods at the start of the episode by strychnine wash,[3]; [11],3 ms
same,increase in episode duration by strychnine wash,[3]; [11],2 s
same,further decrease in cycle periods by the strychnine wash,"[3]; wash after 10 μM in 1 μM strychnine, pooled n=3",3% and 1%
same,further increase of cycle periods at the end of the episode after bicuculline wash,[3]; [12],6.5 ms
same,reduction of cycle period at the start of the episode by bicuculline wash,[3]; [12],2 ms
same,reduction of episode duration by bicuculline wash,[3]; [12],2 s
same,EC50 values in the presence of glycine (co-activation),[4]; Example 2,single-digit nanomolar range
same,concentrations above which peak current amplitude declines (probable open channel block),[4]; co-applied with 10 μM glycine,above 10 μM
same,concentrations at which the co-activating effect is overridden by inhibitory effects,[4]; co-applied with 10 μM glycine,≥ 1000 µM
same,"enhancement of glycine receptor function / EC50 for co-activation, fold lower concentrations than propofol",[4]; glycine receptors heterologously expressed in HEK293 cells,1000 fold
same,EC50 values in the absence of the natural transmitter glycine,[5]; Example 2,single-digit micromolar range
same,"direct activating effect, fold higher concentrations than the co-activating effect",[5]; absence of glycine versus 10 μM glycine,1000 fold
"CC(C)c1cccc(C(C)C)c1O [propofol, 2,6-di-isopropylphenol]",concentration affecting swimming via potentiation of the glycine receptor,[6]; higher concentrations,40 µM
same,concentration inhibiting swimming via actions at the GABAA receptor,[6]; low concentration,10 µM
same,"activation of glycine receptors, fold higher concentrations than EC50 at GABAA receptors",[7],10 fold
